Experimental findings from ChEMBL document CHEMBL1201862, “PubChem BioAssay data set” (2004) are described below.

Assay in all cases: NCI tumour cell line growth inhibition, 48 h
Test [1] relates to SN12C.
Test [2] concerns SF-539.
Test [3] deals with SNB-75.
In test [4] the test system is SNB-19.
In test [5] the test system is SW-620.
For test [6], the system named is NCI-H23.
The subject of test [7] is EKVX.
The test system of test [8] is HCT-15.
The subject of test [9] is NCI-H522.
In test [10] the test system is HL-60.
In test [11] the test system is DMS-273.
Test [12] deals with Malme-3M.
Test [13] has as its system UACC-62.
The test system of test [14] is SK-MEL-28.
Test [15] deals with HCC 2998.
Test [16] concerns SR.
Test [17] has as its system NCI-H460.
In test [18] the test system is PC-3.
The test system of test [19] is BT-549.
The subject of test [20] is MDA-N.

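Where inhibition never reached the appropriate level, the endpoint shown equals the highest concentration tested. Otherwise, values were interpolated linearly from a five-concentration, 48-hour dose response in 96-well plates. GI50 is the concentration that inhibits growth by half.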 Activity calls are given as the source filed them. Rule as the data show it: active = GI50 up to about 1.1 µM and inactive = higher.

As to `O=c1c2ccccc2c(=O)n2n1CC=CC2`, the GI50 in test [1], in test [2], in test [3], in [4], in [5] and in test [6] was > 100 µM (inactive) in each case. The GI50 in [7] is > 100 µM (inactive); in [8], above 100 µM; in [9] it was > 100 µM (inactive); in [10], > 100 µM (inactive); in test [11], > 100 µM (inactive); in test [12] it was > 100 µM (inactive). The GI50 in [13], in test [14] and in test [15] was > 100 µM (inactive) in each case.
Take `Cc1ccc(/C=C/C(=O)c2ccc(Cl)c(Cl)c2)cc1`: the GI50 in test [1], in test [3], in test [4], in [16], in [5] and in [6] was > 100 µM (inactive) in each case. Also, the GI50 in test [7], in [9], in test [10], in test [11], in [17] and in test [12] was > 100 µM (inactive) throughout. For the same molecule, the GI50 in [13], in test [14] and in [15] was > 100 µM (inactive) in each case.
On to `COc1cc(/C=C/c2cccnc2)cc(OC)c1OC`, for which the GI50 in test [1] was > 100 µM (inactive); in test [2], > 100 µM (inactive); in [3] it was 45.7 µM (inactive); in [4] it was > 100 µM (inactive); in test [5], > 100 µM (inactive); in test [6], > 100 µM (inactive). Also, the GI50 in test [7] was 66.1 µM (inactive); in [8] it was above 100 µM; in test [9] it was 53.5 µM (inactive); in [10], 98.2 µM (inactive); in test [11], > 100 µM (inactive); in test [17] it was > 100 µM (inactive). In addition, the GI50 was > 100 µM (inactive) in test [12], 81.1 µM (inactive) in test [13] and > 100 µM (inactive) in test [14].
As to `O=C1C(=O)N(C(=O)c2ccc(Cl)c(Cl)c2)c2ccccc21`, the GI50 is > 100 µM (inactive) in test [2]; 58.6 µM (inactive) in test [3]; > 100 µM (inactive) in [4]; > 100 µM (inactive) in test [16]; > 100 µM (inactive) in test [5]; > 100 µM (inactive) in [6]. The GI50 in test [7], in [10], in [11], in [13] and in test [14] was > 100 µM (inactive) throughout.
Turning to `O=C(Cc1nc2ccccc2s1)C(=O)Nc1ccccc1C(F)(F)F`, the GI50 in test [1] is > 100 µM (inactive); in test [2] it was > 100 µM (inactive); in [3] it was 25.1 µM (inactive); in test [4], > 100 µM (inactive); in [5] it was > 100 µM (inactive); in test [6], > 100 µM (inactive). The GI50 in [7] is > 100 µM (inactive); in [8] it was above 100 µM; in test [9], > 100 µM (inactive); in [10], > 100 µM (inactive); in test [11], > 100 µM (inactive); in test [17], > 100 µM (inactive). Moreover, the GI50 in test [12], in test [13], in [14] and in [15] was > 100 µM (inactive) in each case.
Take `CC(NC(=O)c1ccccc1)C(=O)N(Cc1ccccc1)Cc1ccccc1` (stereo unspecified): the GI50 in [1] was 37.4 µM (inactive); in test [2], 55.3 µM (inactive); in [3], > 100 µM (inactive); in test [4], 36.1 µM (inactive); in [16], 29.9 µM (inactive); in test [5], 51.1 µM (inactive). Besides, the GI50 in test [6] is 24.5 µM (inactive); in [8], 32.1 µM; in test [9] it was 23.7 µM (inactive); in [11], 21.3 µM (inactive); in [17], 27.4 µM (inactive); in test [12] it was 24.5 µM (inactive). In addition, the GI50 in test [13] is 16.4 µM (inactive); in test [14], 25.7 µM (inactive); in [15] it was 35.6 µM (inactive).
In the case of `CCCCCCC(C)CCCCCCCCCCC(=O)O` (stereo unspecified), the GI50 in [1], in test [2], in [3], in test [4], in [16] and in test [5] was > 100 µM (inactive) throughout. Moreover, the GI50 in test [6], in test [7], in test [9], in test [10], in [11] and in test [17] was > 100 µM (inactive) in each case. The GI50 in test [12], in [13] and in test [14] was > 100 µM (inactive) in each case.
As for `Clc1ccc(C2N3CCCCC3[C@@H]3c4[nH]c5ccccc5c4CCN23)cc1` (stereo partly specified), the GI50 was 24.1 µM (inactive) in test [1]; 44.1 µM (inactive) in [2]; 80.5 µM (inactive) in test [3]; 93.3 µM (inactive) in [4]; 44.9 µM (inactive) in [5]; 42.9 µM (inactive) in [6]. Also, the GI50 in test [7] is 81.7 µM (inactive); in [8] it was 53 µM; in test [10] it was 24.9 µM (inactive); in test [11] it was 42.2 µM (inactive); in [17], 61.8 µM (inactive); in test [12], 19.7 µM (inactive). The figures for the GI50 in test [13], in test [14] and in [15] were 50.6 µM (inactive), > 100 µM (inactive) and 34.9 µM (inactive), respectively.
Turning to `CS/C(Nc1ccccc1)=C1\C(=O)N(c2ccccc2)N=C1C`, the GI50 in test [18], in test [1], in test [2], in [3], in test [4] and in test [16] was > 100 µM (inactive) throughout. The GI50 is > 100 µM (inactive) in test [5]; > 100 µM (inactive) in test [6]; > 100 µM (inactive) in test [7]; above 100 µM in test [8]; 35.1 µM (inactive) in test [9]; > 100 µM (inactive) in [10]. For the same molecule, the GI50 in test [17], in [19], in test [12], in [13], in test [14] and in test [20] was > 100 µM (inactive) throughout. For the same molecule, the GI50 in test [15] is > 100 µM (inactive).
In the case of `O=CC1=CCCN(CCc2c[nH]c3ccccc23)C1`, the GI50 is 46.2 µM (inactive) in test [1]; 54 µM (inactive) in test [2]; 45.2 µM (inactive) in test [4]; 11.8 µM (inactive) in test [16]; 17.6 µM (inactive) in [5]; 47.6 µM (inactive) in [6]. The GI50 in [7] is 84.7 µM (inactive); in test [8], 21.7 µM; in test [9], 69.3 µM (inactive); in [10], 11.2 µM (inactive); in test [11], 46.2 µM (inactive); in test [17] it was 54.6 µM (inactive). Moreover, the GI50 in test [12] was 64.7 µM (inactive); in test [13], 58.3 µM (inactive); in test [14], 11.9 µM (inactive); in [15] it was 71.6 µM (inactive).
Consider `O=C1CCNC(=O)NC1`, for which the GI50 in test [1], in [3], in [4], in [16], in test [5] and in test [7] was > 100 µM (inactive) each time. Moreover, the GI50 is above 100 µM in test [8]; > 100 µM (inactive) in test [9]; > 100 µM (inactive) in test [10]; > 100 µM (inactive) in test [11]; > 100 µM (inactive) in test [17]; > 100 µM (inactive) in test [12]. The GI50 in test [13] and in test [14] was > 100 µM (inactive) throughout.
As to `CCOC(=O)C1C(=O)C(C(=O)OCC)C(c2ccccc2)N(C)C1c1ccccc1` (stereo unspecified), the GI50 in test [1], in test [2], in test [3], in test [4], in [16] and in test [5] was > 100 µM (inactive) each time. Besides, the GI50 is > 100 µM (inactive) in [6]; > 100 µM (inactive) in [7]; 82.4 µM in [8]; 49.9 µM (inactive) in test [9]; 38.7 µM (inactive) in test [10]; > 100 µM (inactive) in test [11]. Also, the GI50 in [17] is > 100 µM (inactive); in [12], > 100 µM (inactive); in test [13], 65.6 µM (inactive); in [14], > 100 µM (inactive).
Regarding `Clc1cccc(C2SCc3nc4ccccc4n32)c1Cl` (stereo unspecified), the GI50 in test [1] was 16.1 µM (inactive); in [2], 17.2 µM (inactive); in test [3], 4.51 µM (inactive); in test [4], 18 µM (inactive); in test [5], 17.1 µM (inactive); in test [6], 17.8 µM (inactive). The GI50 in [7] was 16.2 µM (inactive); in [8], 17.4 µM; in [9], 16.6 µM (inactive); in test [10] it was 5.18 µM (inactive); in test [11] it was 15.9 µM (inactive); in test [17] it was 18.5 µM (inactive). For the same molecule, the GI50 in test [13] is 19.7 µM (inactive); in test [14] it was 21.1 µM (inactive).
